Measured values reported in patent US8129499B2 (priority 2008, dated 2012).
Like-named read-outs stand apart in the source and are kept apart here. Residues, ends and D or L forms follow the SMILES beside them. No end group written: not given here.

Tests used:
[1] = test system: purified PR/8 virus; parameters: species or system influenza virus A/PuertoRico/8/34 (PR/8, H1N1)
[2] = test system: purified A/PR/8/34
[3] = test system: MDCK cells; details: 5-75 μM peptide, 24 hours, in words
[4] = test system: cRBCs; details: for effect on cRBC membrane integrity: at any concentration (1-30 μM), in words
[5] = in vitro; details: dog, MDCK cells
[6] = 10 μM peptide, 64 HA units of purified A/PR/8/34, Yes/No
[7] = 10 μM peptide, mock treated virus (64 HAU) = 100% hemagglutination
[8] = 0.1-10 μM peptide, 64 HA units purified PR/8, estimated from dose response curves (Table 3)

Row | Compound | HA inhibition [2] | % inhibition ([2]; 10 μM) [%] | further results
1 | O=C(CCCCCCC(=O)ON1C(=O)CCC1=O)ON1C(=O)CCC1=O [DSS, disuccinimidyl suberate, reference compound] |  |  | virion aggregation by electron microscopy [1]: large aggregates
2 | N=C(N)NCCC[C@H](NC(=O)[C@@H](N)CCCNC(=N)N)C(=O)N[C@@H](CCCCN)C(=O)N[C@@H](CCCCN)C(=O)O [SEQ. ID. NO: 17, RRKK] (H-RRKK-OH; N-terminus and C-terminus assumed) | No | 0 | antiviral activity [2]: no antiviral activity
3 | EEDDLAVLLALLA [SEQ ID NO: 54, EEDDLAVLLALLA] |  | 0 | 
4 | KKLAVLLALLA [SEQ ID NO: 53, KKLAVLLALLA] |  | 0 | 
5 | KLAVLLALLA [SEQ ID NO: 52, KLAVLLALLA] |  | 25 | 
6 | RKAVLLALLA [SEQ ID NO: 51, RKAVLLALLA] |  | 50 | viral hemagglutination activity (FIG. 7) [2]: detected to a lesser extent
7 | RKKLAVLLALLA [SEQ ID NO: 50, RKKLAVLLALLA] |  | 75 | EC50 [2]: 8000 nM; viral hemagglutination activity (FIG. 7) [2]: detected to a lesser extent
8 | RRKKA [SEQ. ID. NO: 16, RRKKA] | No | 0 | 
9 | RRKKAA [SEQ. ID. NO: 15, RRKKAA] | No | 0 | 
10 | RRKKAAAAAAAAA [SEQ ID NO: 49, RRKKAAAAAAAAA] |  | 87.5 | EC50 [2]: ~7000 nM; viral hemagglutination activity (FIG. 7) [2]: detected to a lesser extent
11 | RRKKAALLVLAALAVLA [SEQ. ID. NO: 30, RRKKAALLVLAALAVLA] | No | 0 | 
12 | RRKKAAV [SEQ. ID. NO: 14, RRKKAAV] | No | 0 | 
13 | RRKKAAVA [SEQ. ID. NO: 13, RRKKAAVA] | No | 0 | 
14 | RRKKAAVAL [SEQ. ID. NO: 12, RRKKAAVAL] | No | 0 | 
15 | RRKKAAVALL [SEQ. ID. NO: 11, RRKKAAVALL] | No | 0 | 
16 | RRKKAAVALLAVLLALLA [SEQ. ID. NO: 43, RRKKAAVALLAVLLALLA] |  |  | HA inhibition [2, 6]: Yes; % inhibition [2, 7]: 95±2%; EC50 [2, 8]: 1600 ± 1200 nM
17 | RRKKAAVALLP [SEQ. ID. NO: 10, RRKKAAVALLP] | No | 4 ± 8 | 
18 | RRKKAAVALLPA [SEQ. ID. NO: 9, RRKKAAVALLPA] | No | 0 | 
19 | RRKKAAVALLPAV [SEQ. ID. NO: 8, RRKKAAVALLPAV] | No | 0 | 
20 | RRKKAAVALLPAVL [SEQ. ID. NO: 7, RRKKAAVALLPAVL] | No | 0 | 
21 | RRKKAAVALLPAVLL [SEQ. ID. NO: 6, RRKKAAVALLPAVLL] | No | 0 | 
22 | RRKKAAVALLPAVLLA [SEQ. ID. NO: 5, RRKKAAVALLPAVLLA] | Yes | 96 ± 3 | EC50 [2]: 2800 ± 1100 nM

Row | Compound | HA inhibition [2] | % inhibition ([2]; 10 μM) [%] | further results
23 | RRKKAAVALLPAVLLAL [SEQ. ID. NO: 4, RRKKAAVALLPAVLLAL] | Yes | 89 ± 3 | EC50 [2]: 3800 ± 1900 nM
24 | RRKKAAVALLPAVLLALL [SEQ. ID. NO: 3, RRKKAAVALLPAVLLALL] |  |  | HA inhibition [2, 6]: Yes; % inhibition [2, 7]: 95 ± 2%; EC50 [2, 8]: 600 ± 300 nM
25 | RRKKAAVALLPAVLLALLA [SEQ. ID. NO: 2, RRKKAAVALLPAVLLALLA] |  |  | HA inhibition [2, 6]: Yes; % inhibition [2, 7]: 94 ± 2%; EC50 [2, 8]: 500 ± 300 nM
26 | RRKKAAVALLPAVLLALLAP [EB, reference compound] |  |  | toxicity against MDCK cells [3]: limited toxicity; % inhibition [2, 7]: 95 ± 2%; % inhibition ([2]; 10 μM peptide, normalized to EB-treated (10 μM EB) virus (64 HAU) = 100% inhibition (Table 4)): 100%; EC50 [2, 8]: 2600 nM; EC50 ([2]; Example 6, Table 4): 2000 nM; effect on cRBC membrane integrity [4]: no effect
27 | RRKKALLAP [SEQ. ID. NO: 25, RRKKALLAP] | No | 0 | 
28 | RRKKALLPAVLLALLAP [SEQ. ID. NO: 20, RRKKALLPAVLLALLAP] | Yes | 94 ± 3 | EC50 [2]: 700 ± 300 nM
29 | RRKKAP [SEQ. ID. NO: 28, RRKKAP] | No | 0 | 
30 | RRKKAVALLPAVLLALLAP [SEQ. ID. NO: 18, RRKKAVALLPAVLLALLAP] |  |  | HA inhibition [2, 6]: Yes; % inhibition [2, 7]: 94 ± 6%; EC50 [2, 8]: 800 ± 300 nM
31 | RRKKLAALPLVLAAPLAVLA [EBX, reference compound] |  | 0 | effect on cRBC membrane integrity [4]: no effect
32 | RRKKLAP [SEQ. ID. NO: 27, RRKKLAP] | No | 0 | 
33 | RRKKLAVAAALLA [SEQ ID NO: 55, RRKKLAVAAALLA] |  | 0 | 
34 | RRKKLAVLLAAAA [SEQ ID NO: 56, RRKKLAVLLAAAA] |  | 0 | 
35 | RRKKLAVLLALLA [SEQ. ID. NO: 45, RRKKLAVLLALLA] | Yes |  | virion aggregation by electron microscopy [1]: large aggregates; EC50 [2]: 3000 nM
36 | RRKKLLALLAP [SEQ. ID. NO: 24, RRKKLLALLAP] | No | 0 | 
37 | RRKKLLAP [SEQ. ID. NO: 26, RRKKLLAP] | No | 0 | 
38 | RRKKLLAVLLALLA [SEQ ID NO: 44, RRKKLLAVLLALLA] | Yes | 95±2 | EC50 [2]: 3000 nM
39 | RRKKLLPAVLLALLAP [SEQ. ID. NO: 21, RRKKLLPAVLLALLAP] | Yes | 94 ± 4 | EC50 [2]: 800 ± 300 nM
40 | RRKKLPAVLLALLAP [SEQ. ID. NO: 22, RRKKLPAVLLALLAP] | Yes |  | viral hemagglutination activity (FIG. 7) [2]: the same as that for the EB peptide
41 | RRKKP [SEQ. ID. NO: 29, RRKKP] | No | 0 | 
42 | RRKKVALLAVLLALLA [SEQ. ID. NO: 32, RRKKVALLAVLLALLA] |  | 94 ± 4 | toxicity against MDCK cells [3]: significant toxicity; viability at 24 h, 75 µM [5]: 20%; EC50 [2]: 500 ± 500 nM; lysis (hemoglobin release) compared to SDS treated control ([4]; 10 μM peptide): 71%; lysis (hemoglobin release) compared to SDS treated control ([4]; 30 μM peptide): 100%; concentration inducing hemoglobin release ([4]; 0.5% cRBC, 1 hour at 37° C.): exceeding 5 μM
43 | RRKKVALLPAVLLALLAP [SEQ. ID. NO: 19, RRKKVALLPAVLLALLAP] |  |  | HA inhibition [2, 6]: Yes; % inhibition [2, 7]: 94 ± 4%; EC50 [2, 8]: 500 ± 400 nM
44 | RRKKVLLALLAP [SEQ. ID. NO: 23, RRKKVLLALLAP] | Yes | 90 ± 4 | EC50 [2]: 4000 ± 800 nM
